The conditions of data set [1]: human, estimated based on clinical data, ref [9]; cited from earlier work.
Another data set addresses T1, human OCT1 (Homo sapiens, UniProt O15245).
T1 sequence (O15245 1-554): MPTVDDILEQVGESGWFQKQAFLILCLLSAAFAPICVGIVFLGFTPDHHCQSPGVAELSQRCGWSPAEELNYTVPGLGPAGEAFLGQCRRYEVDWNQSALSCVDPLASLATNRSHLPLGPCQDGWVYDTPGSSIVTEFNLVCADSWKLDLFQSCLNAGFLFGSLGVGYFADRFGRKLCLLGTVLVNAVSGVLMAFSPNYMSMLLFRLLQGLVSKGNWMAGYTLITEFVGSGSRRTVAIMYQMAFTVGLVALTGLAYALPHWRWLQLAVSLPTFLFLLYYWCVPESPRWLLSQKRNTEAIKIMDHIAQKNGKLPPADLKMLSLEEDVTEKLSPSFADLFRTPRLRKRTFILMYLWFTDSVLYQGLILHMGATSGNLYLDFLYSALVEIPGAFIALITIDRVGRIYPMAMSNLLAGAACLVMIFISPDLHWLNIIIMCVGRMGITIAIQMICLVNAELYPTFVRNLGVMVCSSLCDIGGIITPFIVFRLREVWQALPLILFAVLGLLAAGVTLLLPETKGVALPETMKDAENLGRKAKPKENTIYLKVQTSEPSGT
In words: Cellular uptake by HEK293 cells overexpressing human OCT1 (wildtype). To be noted: human versus mouse OCT1, stably transfected HEK293. The protocol:
Generation and characterization of these cell lines has been described in detail before ([34], [48], [49]). Cells were cultured in Dulbecco’s Modified Eagle’s Medium supplemented with 10% fetal bovine serum, 100 U/ml penicillin, and 100 μg/ml streptomycin at 37 °C and 5% CO2 and were passaged twice a week.
At 48 h prior to the experiment, 6 × 10^5 cells were seeded per well in 12-well plates. When using transiently transfected cells, 5 × 10^5 T-REx-293 cells (Life Technologies) were seeded per well in 12-well plates 72 h prior to the experiment, and they were transfected 24 h later as described previously. Twelve-well plates were precoated with poly-D-lysine.
Cellular uptake experiments were performed at 37 °C and pH 7.4 using HBSS supplemented with 10 mM Hepes (in the following referred to as HBSS+). Cells were washed with 1 ml prewarmed (37 °C) HBSS+, and the uptake was initiated by adding 400 μl of prewarmed HBSS+ containing the substrate. Uptake was allowed for exactly 2 min and afterward stopped by adding 2 ml ice-cold HBSS+. Cells were washed twice with 2 ml ice-cold HBSS+ and lysed with 80% acetonitrile supplemented with internal standard, 0.1 N NaOH/0.1% SDS, or radioimmunoprecipitation buffer for LC–MS/MS, liquid scintillation counting, or fluorescence spectroscopy detection, respectively. Intracellular substrate concentrations were measured as described in the following and were then normalized to the amount of total protein in the samples as measured using the bicinchoninic acid assay ([51]).
For LC–MS/MS quantification of intracellular substrate concentrations, the cell lysate was centrifuged at 16,000g for 15 min, and 350 μl of supernatant was evaporated to dryness under nitrogen flow at 40 °C. The sample was reconstituted with 200 μl 0.1% formic acid, and between 2 and 30 μl were injected into the LC–MS/MS system (Table S1).
An API4000 QTRAP tandem mass spectrometer with ESI interface (AB SCIEX) was used, coupled to a Shimadzu Nexera X2 UHPLC system with LC 30AD pumps and SiL 30AC autosampler (Shimadzu).
Intracellular concentrations of radioactively labeled substrates MPP^+ and TEA^+ were quantified using liquid scintillation counting. To this end, 400 μl cell lysate was transferred into a 20 ml scintillation vial, 9 ml Aquasafe 500 Plus liquid scintillator (both Zinsser Analytics) was added, and the sample was measured in the Scintillation Counter LS6500 (Beckman Coulter).
For both analyses, SPSS Statistics, version 28 (SPSS, Inc, IBM) was used.

In the case of `CC(Cc1ccc(O)cc1)NCC(O)c1cc(O)cc(O)c1` (centres unmarked) [Fenoterol], the “clinically relevant (plasma) concentration” value in data set [1] is recorded as 2.18 nM. Moreover, the “fold higher affinity (KM) of human than of mouse OCT1” value on human OCT1 worked out at 8.1 fold.

Values taken from paper PMC9130538, “Amino acids in transmembrane helix 1 confer major functional differences between human and mouse orthologs of the polyspecific membrane transporter OCT1” (The Journal of Biological Chemistry, 2022).
